In patent US6962942B2, “Azacycloalkanone serine protease inhibitors” (3-Dimensional Pharmaceuticals, Inc., priority 1999, dated 2005):

Legend:
Human α-thrombin = biological target: T1, Human α-thrombin (Homo sapiens, UniProt P00734); experiment: In vitro inhibition of purified thrombin (p-nitroanilide substrate hydrolysis, Ki determination); assay type: biochemical; conditions: substrate N-succinyl-Ala-Ala-Pro-Arg-p-nitroanilide, pH 7.5, 37° C.; read-out: Ki against thrombin
T1 construct: Human α-thrombin, and human factor Xa were obtained from Enzyme Research Laboratories; purchased Enzyme Research Laboratories (South Bend, Indiana)
From the text: (§1) Reagents: All buffer salts were obtained from Sigma Chemical Company (St. Louis, Mo.), and were of the highest purity available. The enzyme substrates, N-benzoyl-Phe-Val-Arg-p-nitroanilide (Sigma B7632), N-benzoyl-Ile-Glu-Gly-Arg-p-nitroanilide hydrochloride (Sigma B2291), N-p-Tosyl-Gly-Pro-Lys-p-nitroanilide (Sigma T6140), N-succinyl-Ala-Ala-Pro-Phe-p-nitroanilide (Sigma S7388) and N-CBZ-Val-Gly-Arg-p-nitroanilide (Sigma C7271) were obtained from Sigma. N-succinyl-Ala-Ala-Pro-Arg-p-nitroanilide (BACHEM L-1720) and N-succinyl-Ala-Ala-Pro-Val-p-nitroanilide (BACHEM L-1770) were obtained from BACHEM (King of Prussia, Pa.).
(§2) Human α-thrombin, and human factor Xa were obtained from Enzyme Research Laboratories (South Bend, Indiana). Bovine α-chymotrypsin (Sigma C4129), bovine trypsin (Sigma T8642) and human kidney cell urokinase (Sigma U5004) were obtained from Sigma. Human leukocyte elastase was obtained from Elastin Products (Pacific, Mo.).
(§3) Ki Determinations: All assays are based on the ability of the test compound to inhibit the enzyme catalyzed hydrolysis of a peptide p-nitroanilide substrate. […] In general, substrate concentrations are lower than the experimentally determined value for Km. […]
(§4) In a typical Ki determination, into each well of a 96 well plate is pipetted […] of substrate solution, […] of test compound solution, and the plate allowed to thermally equilibrate at 37° C. in a Molecular Devices plate reader for >15 minutes. Reactions were initiated by the addition of a […] aliquot of enzyme and the absorbance increase at 405 nm is recorded for 15 minutes. […] The ratio of the velocity (rate of change in absorbance as a function of time) for a sample containing no test compound is divided by the velocity of a sample containing test compound, and is plotted as a function of test compound concentration. The data are fit to a linear regression, and the value of the slope of the line calculated. The inverse of the slope is the experimentally determined Ki value. […]

human factor Xa = biological target: T2, human factor Xa (Homo sapiens, UniProt P00742); experiment: In vitro inhibition of purified factor Xa (p-nitroanilide substrate hydrolysis, Ki determination); assay type: biochemical; conditions: for Ki: substrate N-benzoyl-Ile-Glu-Gly-Arg-p-nitroanilide hydrochloride, pH 7.5, 37° C., read-out: Ki against factor Xa
T2 construct: purchased Enzyme Research Laboratories (South Bend, Indiana)
T2 sequence (P00742 235-488 limits assumed): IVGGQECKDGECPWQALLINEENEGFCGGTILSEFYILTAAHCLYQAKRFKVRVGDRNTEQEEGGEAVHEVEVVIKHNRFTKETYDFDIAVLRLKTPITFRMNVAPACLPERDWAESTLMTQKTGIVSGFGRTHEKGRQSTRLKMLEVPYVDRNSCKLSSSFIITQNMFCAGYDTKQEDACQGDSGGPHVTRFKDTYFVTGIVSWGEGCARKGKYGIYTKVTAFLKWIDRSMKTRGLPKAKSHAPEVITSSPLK
T2 sequence (P00742 41-179 partner limits assumed): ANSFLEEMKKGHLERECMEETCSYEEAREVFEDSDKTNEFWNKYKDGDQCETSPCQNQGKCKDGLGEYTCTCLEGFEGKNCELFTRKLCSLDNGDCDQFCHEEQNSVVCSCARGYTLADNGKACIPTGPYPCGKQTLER
From the text: as §1, §2, §3, §4

Compound	Ki (Human α-thrombin)	activity against factor Xa (human factor Xa; at a concentration of 10 μM)	Ki (human factor Xa)
N=C(N)NOCCNC(=O)CN1CCC[C@H](NS(=O)(=O)Cc2ccccc2)C1=O [Example 2]	700 nM	no activity	–
COc1ccc(S(=O)(=O)N[C@H]2CCCN(CC(=O)NCCONC(=N)N)C2=O)cc1 [Example 11]	1200 nM	–	2100 nM
N=C(N)NOCCNC(=O)CN1CCC[C@H](NS(=O)(=O)c2ccc(-c3ccc4ccccc4c3)cc2)C1=O [Example 42]	6400 nM	–	360 nM
